Common to all, as to type: biochemical
One assay addresses T1, human TOR (Homo sapiens, UniProt P42345).
T1 construct: FLAG
Briefly: human TOR kinase assay with purified enzyme, DELFIA format.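 Also: 2 h kinase reaction at room temperature, phosphorylation of S6K at T389 detected with a europium-labelled antibody after plate capture, DMSO vehicle as control.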 As to conditions: FLAG-TOR, 100 μM ATP, His6-S6K substrate.

In the next assay the target is PI3 Kinase α (Homo sapiens, UniProt P42336). Briefly: PI3K fluorescence polarization assay (PI3 Kinase α).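 Also: enzyme reaction with inhibitor or DMSO control, 30–60 min at room temperature, stopped by EDTA, then TAMRA detector with GST-GRP fluorescence polarization read after 90–110 min.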 The note with it: 20 uM PIP2, 25 uM ATP. (Polarisation of emitted light reports the rotation of a fluorescent probe.)
A further assay deals with PI3 Kinase γ (Homo sapiens, UniProt P48736). The experiment in a line: PI3K fluorescence polarization assay (PI3 Kinase γ). The note with it: 20 uM PIP2, 25 uM ATP. How it is done: Buffers: Reaction Buffer: 20 mM HEPES pH7.5, 2 mM MgCl2, 0.05% CHAPS, and 0.01% bME (added fresh); STOP/detection Buffer: 100 mM HEPES pH7.5, 4 mM EDTA, 0.05% CHAPS. STOCKS: ATP 20 mM in H2O; PIP2 (diC8, Echelon cat# P-4508) 1 mM in H2O MW=856.5; GST-murine GRP 1.5 mg/ml in 17% glycerol; Red detector probe-Echelon (TAMRA) 2.5 uM. Plate: Nunc 384 well black polypropylene fluor. Plate.
Assay: The assay is run by putting 9.5 ul of freshly diluted enzyme (in “reaction buffer”) per well, then 0.5 ul of diluted drug or DMSO mixing. Then 10 ul of substrate is added to start the reaction. The mixture is incubated 30-60 minutes, room temp, then stopped with 20 ul of stop/detector mix. The substrate solution, is 40 μM PIP2 and 50 uM ATP in reaction buffer. Addition of 10 ul of substrate to each well starts the reaction. This is 20 uM PIP2, 25 uM ATP final in reaction.
Stop/detector mix: 10 nM TAMRA detector, 40 nM GST-GRP in STOP/detection buffer. To stop reaction: add 20 ul Stop/detector mix per well and mix well. Wait 90-110 minutes before reading plate. Plates are read on Perkin-Elmer Envision plate readers with filters for Tamra. Keep Red probe solutions dark. This procedure is adapted from Echelon Biosciences Inc procedure for their PI3-Kinase fluorescence polarization activity Assay kit Product number K-1100.

Structures are written as SMILES.

Sequence of PI3 Kinase α (P42336 whole entry): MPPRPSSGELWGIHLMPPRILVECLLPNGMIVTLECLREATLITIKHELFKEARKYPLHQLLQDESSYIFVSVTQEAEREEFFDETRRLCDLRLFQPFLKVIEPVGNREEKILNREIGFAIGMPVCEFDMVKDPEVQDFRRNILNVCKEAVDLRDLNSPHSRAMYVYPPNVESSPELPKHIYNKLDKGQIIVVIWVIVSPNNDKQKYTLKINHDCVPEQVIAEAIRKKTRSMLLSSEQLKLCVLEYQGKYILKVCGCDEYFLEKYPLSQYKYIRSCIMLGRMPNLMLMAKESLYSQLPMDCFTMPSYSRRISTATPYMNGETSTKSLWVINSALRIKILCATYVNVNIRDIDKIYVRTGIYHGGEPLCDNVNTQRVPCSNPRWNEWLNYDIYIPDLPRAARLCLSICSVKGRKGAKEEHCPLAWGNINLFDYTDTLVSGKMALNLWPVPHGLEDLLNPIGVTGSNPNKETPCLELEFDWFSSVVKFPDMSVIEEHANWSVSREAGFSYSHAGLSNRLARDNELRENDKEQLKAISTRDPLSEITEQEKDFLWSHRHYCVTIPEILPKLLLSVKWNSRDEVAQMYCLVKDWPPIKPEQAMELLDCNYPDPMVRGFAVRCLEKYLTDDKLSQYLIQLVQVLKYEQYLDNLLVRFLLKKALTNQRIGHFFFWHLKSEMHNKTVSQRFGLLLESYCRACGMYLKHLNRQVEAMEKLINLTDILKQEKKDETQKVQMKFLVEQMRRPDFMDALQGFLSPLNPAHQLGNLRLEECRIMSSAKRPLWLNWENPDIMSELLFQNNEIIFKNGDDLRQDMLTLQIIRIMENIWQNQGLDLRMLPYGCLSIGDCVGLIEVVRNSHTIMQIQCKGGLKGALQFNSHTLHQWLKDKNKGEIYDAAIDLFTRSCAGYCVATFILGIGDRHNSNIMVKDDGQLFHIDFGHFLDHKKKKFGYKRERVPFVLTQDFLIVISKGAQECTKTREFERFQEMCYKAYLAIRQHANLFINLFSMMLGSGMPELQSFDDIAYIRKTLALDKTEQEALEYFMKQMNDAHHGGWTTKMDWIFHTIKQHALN
Sequence of PI3 Kinase α (P27986 whole entry partner): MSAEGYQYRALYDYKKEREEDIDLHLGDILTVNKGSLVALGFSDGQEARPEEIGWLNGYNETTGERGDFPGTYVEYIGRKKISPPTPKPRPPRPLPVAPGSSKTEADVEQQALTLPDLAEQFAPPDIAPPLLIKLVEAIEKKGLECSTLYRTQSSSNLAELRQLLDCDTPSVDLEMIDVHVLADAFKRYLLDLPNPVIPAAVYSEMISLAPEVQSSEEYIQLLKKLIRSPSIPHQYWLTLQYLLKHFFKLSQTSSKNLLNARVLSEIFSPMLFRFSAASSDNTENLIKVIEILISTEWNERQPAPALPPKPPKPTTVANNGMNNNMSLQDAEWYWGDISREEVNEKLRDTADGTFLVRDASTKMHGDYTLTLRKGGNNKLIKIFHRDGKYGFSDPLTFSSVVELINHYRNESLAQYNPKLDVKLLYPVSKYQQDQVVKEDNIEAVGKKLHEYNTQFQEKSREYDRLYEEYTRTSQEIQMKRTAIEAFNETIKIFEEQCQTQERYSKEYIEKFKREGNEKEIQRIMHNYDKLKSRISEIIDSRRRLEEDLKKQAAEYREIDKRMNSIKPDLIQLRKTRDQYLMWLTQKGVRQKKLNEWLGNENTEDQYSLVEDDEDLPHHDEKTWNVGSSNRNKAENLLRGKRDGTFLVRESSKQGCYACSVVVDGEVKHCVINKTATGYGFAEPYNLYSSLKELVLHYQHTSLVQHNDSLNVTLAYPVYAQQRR
Sequence of PI3 Kinase γ (P48736 whole entry): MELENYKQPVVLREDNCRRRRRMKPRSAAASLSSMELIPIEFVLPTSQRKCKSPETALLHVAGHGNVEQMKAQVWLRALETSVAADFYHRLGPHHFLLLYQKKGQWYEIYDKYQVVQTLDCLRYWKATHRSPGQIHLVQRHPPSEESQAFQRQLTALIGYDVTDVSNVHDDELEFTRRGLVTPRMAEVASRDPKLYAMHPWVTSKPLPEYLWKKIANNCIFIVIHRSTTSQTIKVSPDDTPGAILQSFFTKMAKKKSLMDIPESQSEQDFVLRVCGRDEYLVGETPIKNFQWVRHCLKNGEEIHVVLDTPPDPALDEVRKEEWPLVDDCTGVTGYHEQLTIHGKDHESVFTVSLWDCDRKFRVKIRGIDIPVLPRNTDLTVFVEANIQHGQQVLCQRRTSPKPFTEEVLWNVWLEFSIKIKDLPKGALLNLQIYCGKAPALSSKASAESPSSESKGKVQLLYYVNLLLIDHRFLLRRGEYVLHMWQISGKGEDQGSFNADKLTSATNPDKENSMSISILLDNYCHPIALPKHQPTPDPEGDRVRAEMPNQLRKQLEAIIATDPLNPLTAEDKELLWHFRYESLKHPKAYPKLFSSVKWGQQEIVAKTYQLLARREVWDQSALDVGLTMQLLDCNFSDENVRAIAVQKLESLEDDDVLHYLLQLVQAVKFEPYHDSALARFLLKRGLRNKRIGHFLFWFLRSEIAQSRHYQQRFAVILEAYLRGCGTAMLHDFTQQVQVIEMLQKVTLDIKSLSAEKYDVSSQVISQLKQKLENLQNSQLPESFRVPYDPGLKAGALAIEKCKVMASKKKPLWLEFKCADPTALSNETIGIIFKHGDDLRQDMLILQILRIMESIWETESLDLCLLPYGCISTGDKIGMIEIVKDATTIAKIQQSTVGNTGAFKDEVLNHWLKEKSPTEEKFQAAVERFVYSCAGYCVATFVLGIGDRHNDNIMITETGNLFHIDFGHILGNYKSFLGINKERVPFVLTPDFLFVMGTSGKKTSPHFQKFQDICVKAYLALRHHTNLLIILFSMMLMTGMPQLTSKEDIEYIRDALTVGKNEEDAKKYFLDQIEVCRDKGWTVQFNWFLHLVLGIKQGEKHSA

`c1ccc(COc2cccc(-c3nc(N4CCOCC4)c4[nH]ccc4n3)c2)cc1` [Example 1, 2-[3-(benzyloxy)phenyl]-4-morpholin-4-yl-5H-pyrrolo[3,2-d]pyrimidine]: the half-maximal inhibitory concentration (IC50) (as a rule, the point on the concentration scale where inhibition reaches its midpoint) was > 4000 nM on human TOR, 950 nM against PI3 Kinase α and 443 nM on PI3 Kinase γ.

Compound `Oc1cccc(-c2nc(N3CCOCC3)c3[nH]ccc3n2)c1` [Example 2, 3-(4-morpholin-4-yl-5H-pyrrolo[3,2-d]pyrimidin-2-yl)phenol] came in with a concentration for half-maximal inhibition (IC50) against PI3 Kinase γ of 164 nM.

With `OCc1cccc(-c2nc(N3CCOCC3)c3[nH]ccc3n2)c1` [Example 3, [3-(4-morpholin-4-yl-5H-pyrrolo[3,2-d]pyrimidin-2-yl)phenyl]methanol], the 50% inhibitory concentration (IC50) against PI3 Kinase γ came to 918 nM.

In the case of `Cc1cccc(-c2nc(N3CCOCC3)c3[nH]ccc3n2)c1` [Example 4, 2-(3-methylphenyl)-4-morpholin-4-yl-5H-pyrrolo[3,2-d]pyrimidine], the IC50 was 5000 nM against human TOR and > 8700 nM against PI3 Kinase γ.

Take `Nc1cccc(-c2nc(N3CCOCC3)c3[nH]ccc3n2)c1` [Example 5, 3-(4-morpholin-4-yl-5H-pyrrolo[3,2-d]pyrimidin-2-yl)aniline]: the IC50 on human TOR turned out to be 430 nM; on PI3 Kinase γ it was 8000 nM.

As for `CNC(=O)Nc1ccc(-c2nc(N3CCOCC3)c3[nH]ccc3n2)cc1` [Example 6, 1-methyl-3-[4-(4-morpholin-4-yl-5H-pyrrolo[3,2-d]pyrimidin-2-yl)phenyl]urea], the 50% inhibitory concentration (IC50) against human TOR came out at 220 nM; against PI3 Kinase α, 2670 nM; against PI3 Kinase γ, 4980 nM.

`OCc1cccc(-c2nc(N3CCOCC3)c3[nH]cc(CN4CCCC4)c3n2)c1` [Example 7, {3-[4-morpholin-4-yl-7-(pyrrolidin-1-ylmethyl)-5H-pyrrolo[3,2-d]pyrimidin-2-yl]phenyl}methanol] returned an IC50 on PI3 Kinase γ of 1120 nM.

For the compound `OCc1cccc(-c2nc(N3CCOCC3)c3[nH]cc(CNCCN4CCCCC4)c3n2)c1` [Example 8, [3-(4-morpholin-4-yl-7-{[(2-piperidin-1-ylethyl)amino]methyl}-5H-pyrrolo[3,2-d]pyrimidin-2-yl)phenyl]methanol], the figures for the 50% inhibitory concentration (IC50) against human TOR, against PI3 Kinase α and against PI3 Kinase γ were 11100 nM, 72 nM and 4280 nM, respectively.

On to `OCc1cccc(-c2nc(N3CCOCC3)c3[nH]cc(CNCc4cccnc4)c3n2)c1` [Example 9, [3-(4-morpholin-4-yl-7-{[(pyridin-3-ylmethyl)amino]methyl}-5H-pyrrolo[3,2-d]pyrimidin-2-yl)phenyl]methanol], for which the results for the half-inhibitory concentration (IC50) at human TOR, at PI3 Kinase α and at PI3 Kinase γ were 5500 nM, 74 nM and 2870 nM, respectively.

Take `CN1CCN(Cc2c[nH]c3c(N4CCOCC4)nc(-c4cccc(CO)c4)nc23)CC1` [Example 10]: the IC50 against human TOR was 7850 nM; at PI3 Kinase α, 62 nM; at PI3 Kinase γ, 2020 nM.

For the compound `OCc1cccc(-c2nc(N3CCOCC3)c3[nH]cc(CN4CCNCC4)c3n2)c1` [Example 11, {3-[4-morpholin-4-yl-7-(piperazin-1-ylmethyl)-5H-pyrrolo[3,2-d]pyrimidin-2-yl]phenyl}methanol], the concentration for half-maximal inhibition (IC50) came to 4300 nM on human TOR, 30 nM on PI3 Kinase α and 510 nM against PI3 Kinase γ.

For `CN(C)Cc1c[nH]c2c(N3CCOCC3)nc(-c3cccc(CO)c3)nc12` [Example 12], the IC50 against PI3 Kinase γ came to 561 nM.

For `CCN(CC)Cc1c[nH]c2c(N3CCOCC3)nc(-c3cccc(CO)c3)nc12` [Example 13], the concentration for half-maximal inhibition (IC50) on human TOR stood at 260 nM; against PI3 Kinase α it was 28 nM; at PI3 Kinase γ it was 818 nM.

Consider `OCc1cccc(-c2nc(N3CCOCC3)c3[nH]cc(CN4CCN(c5ncccn5)CC4)c3n2)c1` [Example 14], for which the IC50 was determined as 2200 nM against human TOR, 89 nM at PI3 Kinase α and 4510 nM against PI3 Kinase γ.

For `OCc1cccc(-c2nc(N3CCOCC3)c3[nH]cc(CN4CCN(Cc5ccccc5)CC4)c3n2)c1` [Example 15], the results for the half-inhibitory concentration (IC50) at human TOR, at PI3 Kinase α and against PI3 Kinase γ were 5800 nM, 240 nM and 2390 nM, respectively.

For the compound `Oc1cccc(-c2nc(N3CCOCC3)c3[nH]cc(CNCc4cccnc4)c3n2)c1` [Example 16, 3-(4-morpholin-4-yl-7-{[(pyridin-3-ylmethyl)amino]methyl}-5H-pyrrolo[3,2-d]pyrimidin-2-yl)phenol], the IC50 against human TOR is > 4000 nM; against PI3 Kinase α it was 180 nM; on PI3 Kinase γ it was 3030 nM.

Regarding `Oc1cccc(-c2nc(N3CCOCC3)c3[nH]cc(CN4CCCC4)c3n2)c1` [Example 17, 3-[4-morpholin-4-yl-7-(pyrrolidin-1-ylmethyl)-5H-pyrrolo[3,2-d]pyrimidin-2-yl]phenol], the concentration for half-maximal inhibition (IC50) turned out to be 3250 nM on human TOR, 105 nM against PI3 Kinase α and 1560 nM against PI3 Kinase γ.

Turning to `CN(C)Cc1c[nH]c2c(N3CCOCC3)nc(-c3cccc(O)c3)nc12` [Example 18, 3-{7-[(dimethylamino)methyl]-4-morpholin-4-yl-5H-pyrrolo[3,2-d]pyrimidin-2-yl}phenol], the IC50 on human TOR is 3300 nM; against PI3 Kinase α, 74 nM; against PI3 Kinase γ it was 1150 nM.

Regarding `CCN(CC)Cc1c[nH]c2c(N3CCOCC3)nc(-c3cccc(O)c3)nc12` [Example 19, 3-{7-[(diethylamino)methyl]-4-morpholin-4-yl-5H-pyrrolo[3,2-d]pyrimidin-2-yl}phenol], the IC50 came out at 3100 nM against human TOR, 132 nM at PI3 Kinase α and 1820 nM on PI3 Kinase γ.

Regarding `Oc1cccc(-c2nc(N3CCOCC3)c3[nH]cc(CN4CCN(c5ncccn5)CC4)c3n2)c1` [Example 20, 3-{4-morpholin-4-yl-7-[(4-pyrimidin-2-ylpiperazin-1-yl)methyl]-5H-pyrrolo[3,2-d]pyrimidin-2-yl}phenol], the IC50 on human TOR came out at 2000 nM; at PI3 Kinase α, 424 nM; against PI3 Kinase γ it was 6700 nM.

As to `C1=C(c2c[nH]c3c(N4CCOCC4)nc(-c4cccc(OCc5ccccc5)c4)nc23)CCNC1` [Example 21, 2-[3-(benzyloxy)phenyl]-4-morpholin-4-yl-7-(1,2,3,6-tetrahydropyridin-4-yl)-5H-pyrrolo[3,2-d]pyrimidine], the values for the IC50 at human TOR, against PI3 Kinase α and at PI3 Kinase γ were 7000 nM, > 10000 nM and > 10000 nM, respectively.

Consider `Oc1cccc(-c2nc(N3CCOCC3)c3[nH]cc(C4CCNCC4)c3n2)c1` [Example 22, 3-(4-morpholin-4-yl-7-piperidin-4-yl-5H-pyrrolo[3,2-d]pyrimidin-2-yl)phenol], for which the IC50 at PI3 Kinase γ is 1070 nM.

`Oc1cccc(-c2nc(N3CCOCC3)c3[nH]cc(C4CCN(Cc5ccc(F)cc5)CC4)c3n2)c1` [Example 23, 3-{7-[1-(4-fluorobenzyl)piperidin-4-yl]-4-morpholin-4-yl-5H-pyrrolo[3,2-d]pyrimidin-2-yl}phenol] had an IC50 against PI3 Kinase γ of 1070 nM.

As to `OCc1cccc(-c2nc(N3CCOCC3)c3[nH]cc(C4=CCNCC4)c3n2)c1` [Example 24, {3-[4-morpholin-4-yl-7-(1,2,3,6-tetrahydropyridin-4-yl)-5H-pyrrolo[3,2-d]pyrimidin-2-yl]phenyl}methanol], the IC50 on human TOR was determined as 3400 nM; at PI3 Kinase α, 410 nM; against PI3 Kinase γ, 1200 nM.

Take `OCc1cccc(-c2nc(N3CCOCC3)c3[nH]cc(C4=CCN(Cc5ccccc5)CC4)c3n2)c1` [Example 25, {3-[7-(1-benzyl-1,2,3,6-tetrahydropyridin-4-yl)-4-morpholin-4-yl-5H-pyrrolo[3,2-d]pyrimidin-2-yl]phenyl}methanol]: the IC50 on human TOR was determined as 1700 nM; at PI3 Kinase α, 260 nM; against PI3 Kinase γ it was 2790 nM.

Regarding `Oc1cccc(-c2nc(N3CCOCC3)c3[nH]cc(C4CCN(Cc5ccccc5)CC4)c3n2)c1` [Example 26, 3-[7-(1-benzylpiperidin-4-yl)-4-morpholin-4-yl-5H-pyrrolo[3,2-d]pyrimidin-2-yl]phenol], the IC50 at PI3 Kinase γ was found to be 890 nM.

Regarding `Oc1cccc(-c2nc(N3CCOCC3)c3[nH]cc(C4CCN(Cc5ccco5)CC4)c3n2)c1` [Example 27, 3-{7-[1-(2-furylmethyl)piperidin-4-yl]-4-morpholin-4-yl-5H-pyrrolo[3,2-d]pyrimidin-2-yl}phenol], the IC50 is 2750 nM against human TOR, 297 nM on PI3 Kinase α and 1610 nM against PI3 Kinase γ.

`Oc1cccc(-c2nc(N3CCOCC3)c3[nH]cc(C4CCN(Cc5ccc(Cl)nc5)CC4)c3n2)c1` [Example 35, 3-(7-{1-[(6-chloropyridin-3-yl)methyl]piperidin-4-yl}-4-morpholin-4-yl-5H-pyrrolo[3,2-d]pyrimidin-2-yl)phenol] had a 50% inhibitory concentration (IC50) against human TOR of 735 nM.

With `Cn1ccc2nc(-c3cccc(CO)c3)nc(N3CCOCC3)c21` [Example 45, [3-(5-methyl-4-morpholin-4-yl-5H-pyrrolo[3,2-d]pyrimidin-2-yl)phenyl]methanol], the IC50 on human TOR is > 4000 nM; on PI3 Kinase γ, 8110 nM.

Turning to `Cn1cc(CN2CCCC2)c2nc(-c3cccc(CO)c3)nc(N3CCOCC3)c21` [Example 47, {3-[5-methyl-4-morpholin-4-yl-7-(pyrrolidin-1-ylmethyl)-5H-pyrrolo[3,2-d]pyrimidin-2-yl]phenyl}methanol], the half-maximal inhibitory concentration (IC50) at human TOR is > 4000 nM; against PI3 Kinase γ, > 10000 nM.

The values above are taken from patent US20090149458A1, “PYRROLO[3,2-d]PYRIMIDINE COMPOUNDS AND THEIR USE AS PI3 KINASE AND mTOR KINASE INHIBITORS” (Wyeth, priority 2007, published 2009).
